{"source": "patent US8173610B2", "about": "(priority 2005, dated 2012)", "key": {"HCV": {"test_system": "HCV", "experiment": "Inhibition of HCV replication in chronically HCV-infected human PBMC (RT-PCR)", "conditions": "for IC50: read-out: Anti-HCV activity in PBMC IC50; for IC90: read-out: Anti-HCV activity in PBMC IC90", "procedure": "In addition, the inhibition of HCV replication by epirubicin hydrochloride (BNE00), N3′-acetylepirubicin (BNE01), and N3′,O4′,O14-triacetylepirubicin (BNE02) were analyzed in chronically HCV-infected human peripheral blood monocyte cells (PBMC) cultures which was performed as follows. PBMC were isolated from HCV-infected patients blood by Ficoll Pague centrifugation placed on Petri dishes and cultured in 10% FCS, RPMI medium containing PHA (3 μg/ml) according to Laskus et al. (J Infect Dis. 2000) and enriched with known concentrations of BNE00, BNE01, BNE02 in standard conditions (37° C., 5% CO2). On day 5 and 14 of the culture the cells were collected and after extraction, HCV RNA was […] estimated by real-time Reverse Transcriptase Polymerase Chain Reaction using SYBR Green system (FIG. 3). Semiquantitative estimation of HCV RNA was also performed by Reverse Transcriptase Polymerase Chain Reaction, and visualized after electrophoresis through a 1% agarose gel, using ethidium bromide staining (FIG. 4)."}, "HCV subgenomic replicon": {"test_system": "HCV subgenomic replicon", "experiment": "Anti-HCV activity in HCV subgenomic replicon system (Huh7 cells, firefly luciferase)", "conditions": "for Therapeutic Index in HCV replicon system CC50/IC50: Huh7 HCV replicon system", "procedure": "The antiviral (anti-HCV) activity of epirubicin and its derivatives was tested in vitro in cell culture model using the HCV subgenomic replicon stably transfected into Huh7 cells line (clone BM4.5) (Gao et al., J. Virol. 2001) and/or in Huh7 cells replicating selectable subgenomic HCV replicon carrying firefly luciferase gene (Vrolijk et al. J. Virol. Method. 2003).\nThe BM4.5 Huh7 cells were grown in cell culture medium in presence of varying concentrations of epirubicin hydrochloride (BNE00) or epirubicin derivatives. The media and drug were changed everyday for 5 days. After 5 days of treatment cells were lysed and total RNA extracted as described (Gao et al., J. Virol. 2001). The isolated RNA was then assayed for presence of HCV replication by Northern Blot analysis, using a HCV probe targeting the NS5B region of HCV. […] The cell lines were treated everyday with different epirubicin hydrochloride (BNE00) or epirubicin derivatives concentrations for 5 days and at the end of treatment, the RNA from the treated cells were isolated. The total RNA was then probed with a HCV specific probe using Northern blot analysis to detect the HCV RNA. The resulting blot was then exposed to phosphorimager densitometry and the viral replication quantified.\nFor Huh7 cells replicating selectable subgenomic HCV replicon carrying firefly luciferase gene cells were treated with epirubicin hydrochloride (BNE00) or epirubicin derivatives as described above for BM4,5 cells. Following the treatment, cells were lysed and firefly luciferase activity was measured using Luminoskan device (Thermolabsystem) as described (Vrolijk et al. J. Virol. Methods. 2003)."}, "BALB/C mice": {"test_system": "BALB/C mice", "experiment": "In vivo acute toxicity in mice (OECD Guideline No 401)", "method": "(§1) The in vivo determination of acute toxicity of drugs was performed in mice according to “OECD Guidelines for Testing of Chemicals” (Guideline No 401). The study was performed in BALB/C mice and the test substance was administrated intraperitoneally in dose of 1; 5 and 10 mg/kg b.w. Ten males and 10 females were used for each dose. A control group receiving only solvent was run concurrently."}, "Huh7 cells": {"test_system": "Huh7 cells", "experiment": "Cytotoxic activity in Huh7 cells replicating the HCV replicon", "conditions": "read-out: Cytotoxic activity in Huh7 Cells, CC50; Huh7 cells replicating subgenomic HCV replicon carrying firefly luciferase gene"}, "in vivo": {"experiment": "in vivo", "conditions": "both, BALB/C, mouse, ip", "method": "as §1"}, "in vitro": {"experiment": "in vitro", "conditions": "human"}, "[1]": {"experiment": "Cytotoxic activity in Huh7 cells replicating the HCV replicon", "conditions": "human"}, "[2]": {"conditions": "chronically HCV-infected human PBMC"}, "[3]": {"conditions": "read-out: Anti-HCV activity in HCV replicon system IC50, Huh7 cells, subgenomic HCV replicon carrying firefly luciferase gene"}, "[4]": {"conditions": "Hepatitis C virus, PBMC, in Homo sapiens"}}, "note": "Read-outs that look alike come from different tables or passages of the source.", "data": [{"compound": "COc1cccc2c1C(=O)c1c(O)c3c(c(O)c1C2=O)C[C@@](O)(C(=O)CO)C[C@@H]3O[C@H]1C[C@@H](NC(C)=O)[C@H](O)[C@H](C)O1", "note": "[BNE01, N3′-acetyl-4′-epidoxorubicin]", "values": [{"measurement": "Therapeutic Index in PBMC TI50 CC50/IC50", "setting": "HCV; [2]", "value": 91.7}, {"measurement": "IC50", "setting": "HCV; [2]", "value": 360, "unit": "nM"}, {"measurement": "IC90", "setting": "HCV; [2]", "value": 470, "unit": "nM"}, {"measurement": "CC50", "setting": "PBMC", "value": 33000, "unit": "nM"}, {"measurement": "CC90", "setting": "PBMC", "value": 91000, "unit": "nM"}]}, {"compound": "COc1cccc2c1C(=O)c1c(O)c3c(c(O)c1C2=O)CC(O)(C(=O)COC(C)=O)CC3OC1CC(NC(C)=O)C(OC(C)=O)C(C)O1", "note": "(stereo not shown) [BNE02, N3′, O4′, O14-triacetyl-4′-epidoxorubicin]", "values": [{"measurement": "Therapeutic Index in HCV replicon system CC50/IC50", "setting": "HCV subgenomic replicon", "value": 10}, {"measurement": "IC50", "setting": "HCV subgenomic replicon; [3]", "value": 500, "unit": "nM"}, {"measurement": "Therapeutic Index in PBMC TI50 CC50/IC50", "setting": "HCV; [2]", "value": ">490.0"}, {"measurement": "IC50", "setting": "HCV; [2]", "value": "< 100", "unit": "nM"}, {"measurement": "IC90", "setting": "HCV; [2]", "value": 500, "unit": "nM"}, {"measurement": "LD50 (in vivo acute toxicity)", "setting": "BALB/C mice; BALB/C mice, intraperitoneal", "value": 1355.08, "unit": "mg/kg b.w."}, {"measurement": "fold lower acute toxicity compared with epirubicin hydrochloride (BNE00)", "setting": "BALB/C mice; LD50 ratio, mice", "value": 52, "unit": "fold"}, {"measurement": "CC50", "setting": "PBMC", "value": 49000, "unit": "nM"}, {"measurement": "CC90", "setting": "PBMC", "value": 120000, "unit": "nM"}, {"measurement": "CC50", "setting": "Huh7 cells", "value": 5000, "unit": "nM"}]}, {"compound": "COc1cccc2c1C(=O)c1c(O)c3c(c(O)c1C2=O)C[C@@](O)(C(=O)CO)C[C@@H]3O[C@H]1C[C@H](N)[C@@H](O)[C@H](C)O1", "note": "[BNE00, 7-O-(3′-amino-2′,3′,6′-trideoxy-α,β-L-arabinohexopyranosyl)-adriamycinone, reference compound]", "values": [{"measurement": "IC50", "setting": "HCV subgenomic replicon; Hepatitis C virus, Huh-7, read-out: Anti-HCV activity in HCV replicon system IC50", "value": 2, "unit": "nM"}, {"measurement": "IC50", "setting": "HCV subgenomic replicon; Hepatitis C virus, Huh-7, read-out: anti-HCV IC50", "value": "2 to 4", "unit": "nM"}, {"measurement": "Therapeutic Index in HCV replicon system CC50/IC50", "setting": "HCV subgenomic replicon", "value": 1.5}, {"measurement": "IC50", "setting": "HCV; [4]", "value": 320, "unit": "nM"}, {"measurement": "IC90", "setting": "HCV; [4]", "value": 460, "unit": "nM"}, {"measurement": "Therapeutic Index in PBMC TI50 CC50/IC50", "setting": "HCV; [2]", "value": 5.62}, {"measurement": "LD50", "setting": "in vivo", "value": 26.2, "unit": "mg/kg"}, {"measurement": "CC50", "setting": "in vitro", "value": 1800, "unit": "nM"}, {"measurement": "CC90", "setting": "in vitro", "value": 2400, "unit": "nM"}, {"measurement": "CC50", "setting": "[1]", "value": 3, "unit": "nM"}]}, {"compound": "COc1cccc2c1C(=O)c1c(O)c3c(c(O)c1C2=O)CC(O)(C(=O)CO)CC3OC1CC(N(C)C)C(O)C(C)O1", "note": "(stereo not shown) [BNE06, 3′-N,N-Dimethyl-4′-epidoxorubicin]", "values": [{"measurement": "Therapeutic Index in HCV replicon system CC50/IC50", "setting": "HCV subgenomic replicon", "value": 3.0}, {"measurement": "IC50", "setting": "HCV subgenomic replicon; [3]", "value": 18, "unit": "nM"}, {"measurement": "CC50", "setting": "Huh7 cells", "value": 60, "unit": "nM"}]}]}
